Results taken from ChEMBL document CHEMBL3045033, “Synthesis of new potential anticancer agents based on 4-thiazolidinone and oleanane scaffolds” (Med Chem Res, 2012).
Values joined by “and” are separate entries in the source; they are usually repeats but may differ in a detail not shown here. Equal entries are not always repeated.

How the values were obtained:
Type in all cases: functional
[1] = tested on: K562; assay: Cytotoxicity against Homo sapiens (human) K562 cells after 48 hr by SRB assay; settings: K562, 48 h
[2] = tested on: MDA-MB-435; assay: Cytotoxicity against Homo sapiens (human) MDA-MB-435 cells after 48 hr by SRB assay; settings: MDA-MB-435, 48 h; for CC50: read-out: pLC50 (the source's name) (converted)
[3] = tested on: SN12C; assay: Cytotoxicity against Homo sapiens (human) SN12C cells after 48 hr by SRB assay
[4] = tested on: OVCAR-4; assay: Cytotoxicity against Homo sapiens (human) OVCAR4 cells after 48 hr by SRB assay; settings: OVCAR-4, 48 h
[5] = tested on: SK-MEL-2; assay: Cytotoxicity against Homo sapiens (human) SK-MEL-2 cells after 48 hr by SRB assay; settings: SK-MEL-2, 48 h
[6] = tested on: UO-31; assay: Cytotoxicity against Homo sapiens (human) UO31 cells at 10^-4 to 10^-8 M after 48 hr by SRB assay; settings: UO-31, 48 h, read-out: pTGI (converted)
[7] = tested on: IGROV-1; assay: Cytotoxicity against Homo sapiens (human) IGROV1 cells at 10^-4 to 10^-8 M after 48 hr by SRB assay; settings: IGROV-1, 48 h, read-out: pTGI (converted)
[8] = tested on: HCT-116; assay: Cytotoxicity against Homo sapiens (human) HCT116 cells after 48 hr by SRB assay; settings: HCT-116, 48 h
[9] = tested on: OVCAR-8; assay: Cytotoxicity against Homo sapiens (human) OVCAR8 cells after 48 hr by SRB assay; settings: OVCAR-8, 48 h
[10] = tested on: HL-60(TB); assay: Cytotoxicity against Homo sapiens (human) HL-60(TB) cells at 10^-4 to 10^-8 M after 48 hr by SRB assay; settings: HL-60, 48 h, read-out: pTGI (converted)
[11] = tested on: HL-60(TB); assay: Cytotoxicity against Homo sapiens (human) HL-60(TB) cells after 48 hr by SRB assay; settings: HL-60, 48 h
[12] = tested on: RXF 393; assay: Cytotoxicity against Homo sapiens (human) RXF393 cells at 10^-4 to 10^-8 M after 48 hr by SRB assay; settings: RXF 393, 48 h, read-out: pTGI (converted)
[13] = tested on: PC-3; assay: Cytotoxicity against Homo sapiens (human) PC3 cells assessed as cellular growth at 10^-5 M after 48 hr by SRB assay relative to untreated control
[14] = tested on: CAKI-1; assay: Cytotoxicity against Homo sapiens (human) Caki1 cells after 48 hr by SRB assay; settings: CAKI-1, 48 h
[15] = tested on: BT-549; assay: Cytotoxicity against Homo sapiens (human) BT549 cells at 10^-4 to 10^-8 M after 48 hr by SRB assay; settings: BT-549, 48 h, read-out: pTGI (converted)
[16] = tested on: IGROV-1; assay: Cytotoxicity against Homo sapiens (human) IGROV1 cells after 48 hr by SRB assay
[17] = tested on: NCI-H23; assay: Cytotoxicity against Homo sapiens (human) NCI-H23 cells after 48 hr by SRB assay; settings: NCI-H23, 48 h
[18] = tested on: Hs-578T; assay: Cytotoxicity against Homo sapiens (human) Hs578T cells after 48 hr by SRB assay
[19] = tested on: HOP-92; assay: Cytotoxicity against Homo sapiens (human) HOP92 cells at 10^-4 to 10^-8 M after 48 hr by SRB assay; settings: HOP-92, 48 h, read-out: pTGI (converted)
[20] = Cytotoxicity against Homo sapiens (human) NCI-ADR-RES cells at 10^-4 to 10^-8 M after 48 hr by SRB assay; settings: read-out: pTGI (converted)
[21] = tested on: T47D; assay: Cytotoxicity against Homo sapiens (human) T47D cells after 48 hr by SRB assay
[22] = tested on: MDA-MB-435; assay: Cytotoxicity against Homo sapiens (human) MDA-MB-435 cells at 10^-4 to 10^-8 M after 48 hr by SRB assay; settings: MDA-MB-435, 48 h, read-out: pTGI (converted)
[23] = tested on: SNB-75; assay: Cytotoxicity against Homo sapiens (human) SNB75 cells at 10^-4 to 10^-8 M after 48 hr by SRB assay; settings: SNB-75, 48 h, read-out: pTGI (converted)
[24] = tested on: A549; assay: Cytotoxicity against Homo sapiens (human) A549 cells after 48 hr by SRB assay; settings: A549, 48 h
[25] = tested on: Malme-3M; assay: Cytotoxicity against Homo sapiens (human) MALME-3M cells after 48 hr by SRB assay; settings: for CC50: read-out: pLC50 (the source's name) (converted)
[26] = tested on: MDA-MB-231; assay: Cytotoxicity against Homo sapiens (human) MDA-MB-231 cells after 48 hr by SRB assay; settings: MDA-MB-231, 48 h
[27] = tested on: NCI-H522; assay: Cytotoxicity against Homo sapiens (human) NCI-H522 cells after 48 hr by SRB assay; settings: NCI-H522, 48 h; for CC50: read-out: pLC50 (the source's name) (converted)
[28] = tested on: HOP-92; assay: Cytotoxicity against Homo sapiens (human) HOP92 cells after 48 hr by SRB assay; settings: HOP-92, 48 h
[29] = tested on: RPMI-8226; assay: Cytotoxicity against Homo sapiens (human) RPMI8226 cells after 48 hr by SRB assay; settings: RPMI-8226, 48 h
[30] = tested on: MCF7; assay: Cytotoxicity against Homo sapiens (human) MCF7 cells after 48 hr by SRB assay; settings: MCF7, 48 h
[31] = tested on: HCT-15; assay: Cytotoxicity against Homo sapiens (human) HCT15 cells after 48 hr by SRB assay; settings: HCT-15, 48 h
[32] = tested on: HCC 2998; assay: Cytotoxicity against Homo sapiens (human) HCC2998 cells after 48 hr by SRB assay; settings: HCC 2998, 48 h
[33] = tested on: RXF 393; assay: Cytotoxicity against Homo sapiens (human) RXF393 cells after 48 hr by SRB assay
[34] = tested on: SF-268; assay: Cytotoxicity against Homo sapiens (human) SF268 cells after 48 hr by SRB assay; settings: SF-268, 48 h
[35] = tested on: SF-295; assay: Cytotoxicity against Homo sapiens (human) SF295 cells after 48 hr by SRB assay; settings: SF-295, 48 h
[36] = tested on: NCI-H522; assay: Cytotoxicity against Homo sapiens (human) NCI-H522 cells at 10^-4 to 10^-8 M after 48 hr by SRB assay; settings: NCI-H522, 48 h, read-out: pTGI (converted)
[37] = tested on: Malme-3M; assay: Cytotoxicity against Homo sapiens (human) MALME-3M cells at 10^-4 to 10^-8 M after 48 hr by SRB assay; settings: read-out: pTGI (converted)
[38] = tested on: MOLT-4; assay: Cytotoxicity against Homo sapiens (human) MOLT4 cells assessed as cellular growth at 10^-5 M after 48 hr by SRB assay relative to untreated control
[39] = tested on: RPMI-8226; assay: Cytotoxicity against Homo sapiens (human) RPMI8226 cells assessed as cellular growth at 10^-5 M after 48 hr by SRB assay relative to untreated control
[40] = tested on: K562; assay: Cytotoxicity against Homo sapiens (human) K562 cells assessed as cellular growth at 10^-5 M after 48 hr by SRB assay relative to untreated control

SMILES | GI50 [1] | CC50 [2] | GI50 [3] | GI50 [4] | GI50 [5] | TGI [6] | TGI [7] | GI50 [8] | GI50 [9] | TGI [10] | GI50 [11] | TGI [12] | Activity [13] | GI50 [14] | TGI [15] | GI50 [17] | GI50 [18] | TGI [19] | TGI [20] | TGI [23] | also measured
COC(=O)[C@]12CCC(C)(C)C[C@H]1C1=CC[C@@H]3[C@@]4(C)CC/C(=N\O)C(C)(C)[C@@H]4CC[C@@]3(C)[C@]1(C)CC2 | 37.2 µM | > 100 µM | 20.9 µM | 30.2 µM | 64.6 µM | 45.7 µM | > 100 µM | 29.5 µM | 34.7 µM | > 100 µM | 58.9 µM | 36.3 µM | 38.63% | 19.5 µM | > 100 µM | 20 µM | 27.5 µM | 39.8 µM | > 100 µM | 38.9 µM | GI50 [2]: 39.8 µM; GI50 ([16]; Homo sapiens, IGROV-1, 48 h): 33.9 µM; GI50 [21]: 25.1 µM; TGI [22]: > 100 µM; GI50 [24]: 28.8 µM; CC50 [25]: > 100 µM; GI50 [26]: 20.4 µM; GI50 [27]: 26.3 µM; CC50 [27]: > 100 µM; GI50 [28]: 19.1 µM; GI50 [29]: 39.8 µM; GI50 [30]: 20.4 µM; GI50 [31]: 24 µM; GI50 [32]: 22.9 µM; GI50 ([33]; Homo sapiens, RXF 393, 48 h): 18.2 µM; GI50 [34]: 24 µM; GI50 [35]: 17.8 µM; TGI [36]: 66.1 µM
COC(=O)[C@]12CCC(C)(C)C[C@H]1C1=CC[C@@H]3[C@@]4(C)CC/C(=N\OC(=O)/C=C5/SC(=O)NC5=O)C(C)(C)[C@@H]4CC[C@@]3(C)[C@]1(C)CC2 | – | – | – | – | – | 2.95 µM | 4.17 µM | – | – | 5.37 µM | – | 3.55 µM | – | – | 9.12 µM | – | – | 4.68 µM | 22.9 µM | 22.9 µM | TGI [37]: 7.76 µM; Activity [38]: 2.28%; Activity [39]: 16.33%; GI50 [16]: 8.91 µM and 1.91 µM; TGI [22]: 9.12 µM; GI50 [33]: 6.61 µM and 1.91 µM; TGI [36]: 5.62 µM; Activity [40]: 26.64%
CC1(C)CC[C@@]23CC[C@]4(C)[C@@](OC2=O)([C@@H]3C1)[C@@H](Br)C[C@@H]1[C@@]2(C)CC/C(=N\O)C(C)(C)[C@@H]2CC[C@]14C | 56.2 µM | > 100 µM | 37.2 µM | 11.5 µM | > 100 µM | > 100 µM | – | 19.1 µM | 8.51 µM | > 100 µM | > 100 µM | – | 38.45% | 28.2 µM | 69.2 µM | 38 µM | 4.68 µM | 46.8 µM | > 100 µM | 60.3 µM | TGI [37]: 23.4 µM; Activity [38]: 20.29%; Activity [39]: 38.33%; GI50 [21]: 17.4 µM; GI50 [24]: 17.8 µM; GI50 [25]: 3.02 µM; CC50 [25]: > 100 µM; GI50 [26]: 17.8 µM; CC50 [27]: > 100 µM; GI50 [28]: 4.37 µM; GI50 [29]: > 100 µM; GI50 [30]: 11.7 µM; GI50 [31]: 30.9 µM; GI50 [32]: 81.3 µM; GI50 [34]: 27.5 µM; GI50 [35]: 14.1 µM; Activity [40]: 21.17%
